How the values were obtained:
[1] = biological target: T1, recombinant catalytic a domain of human PDI A1 (PDIa) (Homo sapiens, UniProt P07237); experiment: Insulin aggregation assay (PDIa reductase activity); format: biochemical; settings: compound 750 μM + PDIa 500 μM, diluted 100-fold
T1 construct: made in house; host or cells: Escherichia coli BL21-Gold (DE3)

[2] = system: PC12 mHTT^Q103 cells; settings: Hoffstrom et al., 2010; read-out: EC50, rescue of PC12 mHTT^Q103 cells (previously identified inhibitor); cited from earlier work
[3] = biological target: T1, recombinant catalytic a domain of human PDI A1 (PDIa); experiment: Insulin aggregation assay (PDIa reductase activity); format: biochemical; settings: compound 750 μM
[4] = Mouse plasma stability assay; format: in vitro ADME; settings: compound 1.0 μM
Procedure: Test compound (1 μM) was incubated at 37° C. for up to 120 minutes in mouse plasma. At 0, 15, 30, 60, and 120 minute intervals an 100 μL aliquot was taken and quenched with 200 μL acetonitrile (ACN) containing internal standard. Following completion of the experimentation, the samples were analyzed by LC-MS/MS. The half-life (t1/2) was calculated using the following equation: t1/2=0.693/k, where, k is the elimination rate constant of test compounds obtained by fitting the data to the equation: C=initial×exp (−k×t). Results were reported as peak area ratios of analyte to internal standard.
The microsome stability assay, plasma stability assay, and plasma protein binding assay were each performed by Alliance Pharma, Inc. (Malvern, Pa.).

T1 sequence (P07237 with tags, fused parts or gaps): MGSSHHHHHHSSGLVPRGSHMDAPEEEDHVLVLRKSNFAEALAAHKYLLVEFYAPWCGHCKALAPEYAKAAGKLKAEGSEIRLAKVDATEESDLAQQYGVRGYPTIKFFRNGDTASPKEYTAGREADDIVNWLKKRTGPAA

| Compound | PDI's enzymatic activity after dilution of pre-formed complex [1] | EC50 [2] | inhibition of PDI's reduction of insulin without dilution [3] | % Remaining after 2-hour incubation [4] | Elimination rate constant (k) [4] | half-life at 1 μM ([4]; read-out: Half-life (t1/2) (converted)) |
| --- | --- | --- | --- | --- | --- | --- |
| COC(=O)C1(C)c2[nH]c3ccccc3c2CCN1C(=O)CCl (stereo not drawn) [16F16, reference compound] | still inhibited | 1 µM | able to inhibit |  |  |  |
| CCOC(=O)[C@H](CCc1ccccc1)N[C@@H](C)C(=O)N1CCC[C@H]1C(=O)O [Enalapril, reference compound] |  |  |  | 4.3% | 0.0201 | 36 min |

Source: patent publication US20180092908A1, “SMALL MOLECULE OXIDIZERS OF PDI AND THEIR USE” (THE TRUSTEES OF COLUMBIA UNIVERSITY IN THE CITY OF NEW YORK, priority 2015, published 2018)
